How the values were obtained:
human 5-HT1B receptor = human 5-HT1B receptor (Homo sapiens, UniProt P28222); experiment: R-SAT assay 5-HT1B; type: cell-based
human 5-HT1D receptor = molecular target: T1, human 5-HT1D receptor (Homo sapiens, UniProt P28221); experiment: R-SAT assay 5-HT1D; type: cell-based; details: Table 3, 5-HT1D; percent response of reference 5-CT
T1 construct: expressed in transfected cells; host or cells: NIH/3T3

[1] = molecular target: T2, human 5-HT2C(vgv) receptor (Homo sapiens, UniProt P28335, I156V/I160V/N158G); experiment: R-SAT assay 5-HT2C; type: cell-based; details: Table 3, 5-HT2C; percent response of reference 5-CT
T2 construct: expressed in transfected cells; host or cells: NIH/3T3
T2 sequence (P28335 33-458 I156V/N158G/I160V): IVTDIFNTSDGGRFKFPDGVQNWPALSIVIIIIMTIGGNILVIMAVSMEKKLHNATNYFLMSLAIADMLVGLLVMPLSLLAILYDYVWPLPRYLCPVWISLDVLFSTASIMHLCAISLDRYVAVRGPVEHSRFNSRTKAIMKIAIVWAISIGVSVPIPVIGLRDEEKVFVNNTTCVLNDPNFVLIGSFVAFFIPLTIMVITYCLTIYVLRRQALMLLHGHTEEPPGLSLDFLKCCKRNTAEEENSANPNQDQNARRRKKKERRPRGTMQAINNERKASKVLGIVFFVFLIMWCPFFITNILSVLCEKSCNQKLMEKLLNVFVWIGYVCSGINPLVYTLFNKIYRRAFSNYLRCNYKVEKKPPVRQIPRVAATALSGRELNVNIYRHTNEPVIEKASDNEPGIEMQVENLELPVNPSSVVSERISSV

human 5-HT6 receptor = human 5-HT6 receptor (Homo sapiens, UniProt P50406); experiment: R-SAT assay 5-HT6; type: cell-based
human 5-HT6 receptor, sequence (P50406 whole entry): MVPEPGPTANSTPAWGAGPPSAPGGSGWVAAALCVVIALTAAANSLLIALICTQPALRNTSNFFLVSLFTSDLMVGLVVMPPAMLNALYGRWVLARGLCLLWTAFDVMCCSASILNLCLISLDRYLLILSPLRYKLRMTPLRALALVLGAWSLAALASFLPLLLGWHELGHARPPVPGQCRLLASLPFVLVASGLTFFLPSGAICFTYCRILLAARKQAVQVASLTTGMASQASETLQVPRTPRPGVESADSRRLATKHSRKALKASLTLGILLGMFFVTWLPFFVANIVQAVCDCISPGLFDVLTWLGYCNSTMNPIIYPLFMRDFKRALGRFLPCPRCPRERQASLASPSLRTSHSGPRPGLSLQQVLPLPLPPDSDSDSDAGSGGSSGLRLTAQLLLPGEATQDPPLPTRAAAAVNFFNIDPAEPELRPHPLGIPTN

human 5-HT7 receptor = molecular target: T3, human 5-HT7 receptor (Homo sapiens, UniProt P34969); experiment: R-SAT assay 5-HT7; type: cell-based; details: Table 3, 5-HT7; percent response of reference 5-CT
T3 construct: expressed in transfected cells; host or cells: NIH/3T3
T3 sequence (P34969 whole entry): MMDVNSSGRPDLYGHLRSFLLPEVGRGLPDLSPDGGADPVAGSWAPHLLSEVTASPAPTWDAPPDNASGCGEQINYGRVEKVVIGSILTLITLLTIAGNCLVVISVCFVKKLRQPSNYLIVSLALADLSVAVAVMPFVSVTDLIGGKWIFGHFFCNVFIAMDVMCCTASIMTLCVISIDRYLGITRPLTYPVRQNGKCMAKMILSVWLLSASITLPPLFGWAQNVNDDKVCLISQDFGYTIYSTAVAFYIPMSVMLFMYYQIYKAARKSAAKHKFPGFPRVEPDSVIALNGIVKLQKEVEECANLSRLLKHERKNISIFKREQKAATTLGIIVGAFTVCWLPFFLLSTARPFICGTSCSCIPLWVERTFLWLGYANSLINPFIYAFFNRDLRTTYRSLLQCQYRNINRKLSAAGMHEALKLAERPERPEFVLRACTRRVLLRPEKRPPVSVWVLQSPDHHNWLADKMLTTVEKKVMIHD

human 5-HT2A receptors [2] = molecular target: T4, human 5-HT2A receptors (Homo sapiens, UniProt P28223); experiment: Phosphatidyl inositol (PI) hydrolysis assay at 5-HT2A; type: cell-based; set-up: expressed in transfected cells; details: mean ± SEM
T4 sequence (P28223 whole entry): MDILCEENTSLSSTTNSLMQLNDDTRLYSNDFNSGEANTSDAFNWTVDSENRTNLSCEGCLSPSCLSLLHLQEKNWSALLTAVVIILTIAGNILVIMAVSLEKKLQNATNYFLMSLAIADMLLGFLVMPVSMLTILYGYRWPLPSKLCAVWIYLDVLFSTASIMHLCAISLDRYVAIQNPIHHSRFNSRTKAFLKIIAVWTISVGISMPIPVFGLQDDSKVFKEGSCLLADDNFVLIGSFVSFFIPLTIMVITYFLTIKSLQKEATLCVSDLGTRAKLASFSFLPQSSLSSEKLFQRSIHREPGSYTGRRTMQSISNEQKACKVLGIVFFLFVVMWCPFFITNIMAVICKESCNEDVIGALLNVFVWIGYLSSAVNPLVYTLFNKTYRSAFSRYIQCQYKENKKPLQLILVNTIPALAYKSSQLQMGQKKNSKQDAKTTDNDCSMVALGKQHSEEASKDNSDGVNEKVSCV
Procedure: After lysing the cells with 50 μl of 0.1M formic acid, 20 μl each cell lysate was mixed with 80 μl (1 mg) RNA Binding YSi-SPA beads (GE Healthcare, Chalfont St. Giles, UK) on PICO plates (PerkinElmer) and counted on a TopCount (Packard).
Each curve is representative of at least three or more independent experiments.

human 5-HT2A receptors [3] = molecular target: T4, human 5-HT2A receptors; experiment: R-SAT functional assay at 5-HT2A; type: cell-based; set-up: expressed in transfected cells; host or cells: NIH-3T3
5-HT2B receptors = 5-HT2B receptors (Homo sapiens, UniProt P41595); experiment: R-SAT assay 5-HT2B; type: cell-based; set-up: expressed in transfected cells; host or cells: NIH/3T3
5-HT2B receptors, sequence (P41595 whole entry): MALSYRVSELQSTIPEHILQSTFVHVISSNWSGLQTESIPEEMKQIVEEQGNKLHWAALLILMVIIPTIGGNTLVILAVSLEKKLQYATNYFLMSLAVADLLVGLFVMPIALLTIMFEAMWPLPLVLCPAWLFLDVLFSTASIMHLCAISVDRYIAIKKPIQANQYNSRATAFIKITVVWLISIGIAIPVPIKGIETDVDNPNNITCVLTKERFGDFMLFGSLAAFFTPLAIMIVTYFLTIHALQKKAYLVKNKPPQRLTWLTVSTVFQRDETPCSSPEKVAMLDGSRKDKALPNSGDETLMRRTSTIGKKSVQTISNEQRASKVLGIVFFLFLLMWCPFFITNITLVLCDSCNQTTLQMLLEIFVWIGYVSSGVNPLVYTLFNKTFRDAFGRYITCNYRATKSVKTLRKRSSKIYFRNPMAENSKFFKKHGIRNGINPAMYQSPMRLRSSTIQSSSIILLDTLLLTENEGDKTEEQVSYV

human 5-HT2A receptors [4] = molecular target: T4, human 5-HT2A receptors; experiment: BRET2 beta-arrestin-2 recruitment assay at 5-HT2A; type: cell-based; set-up: expressed in transfected cells; host or cells: HEK-293T; details: mean ± SEM
Procedure: (§1) BRET-2 signals were measured using the multiplate reader Mithras 940LB (Berthold Technologies, Bad Wildbad, Germany) and were calculated as the ratio between the Renilla luciferase emission and the GFP2 emission corrected by the background emissions of non-transfected cells.

human M2 receptor = molecular target: T5, human M2 receptor (Homo sapiens, UniProt P08172); experiment: R-SAT assay M2; type: cell-based; details: Table 3, M2; percent response of reference Carbachol
T5 construct: expressed in transfected cells; host or cells: NIH/3T3
T5 sequence (P08172 1-466): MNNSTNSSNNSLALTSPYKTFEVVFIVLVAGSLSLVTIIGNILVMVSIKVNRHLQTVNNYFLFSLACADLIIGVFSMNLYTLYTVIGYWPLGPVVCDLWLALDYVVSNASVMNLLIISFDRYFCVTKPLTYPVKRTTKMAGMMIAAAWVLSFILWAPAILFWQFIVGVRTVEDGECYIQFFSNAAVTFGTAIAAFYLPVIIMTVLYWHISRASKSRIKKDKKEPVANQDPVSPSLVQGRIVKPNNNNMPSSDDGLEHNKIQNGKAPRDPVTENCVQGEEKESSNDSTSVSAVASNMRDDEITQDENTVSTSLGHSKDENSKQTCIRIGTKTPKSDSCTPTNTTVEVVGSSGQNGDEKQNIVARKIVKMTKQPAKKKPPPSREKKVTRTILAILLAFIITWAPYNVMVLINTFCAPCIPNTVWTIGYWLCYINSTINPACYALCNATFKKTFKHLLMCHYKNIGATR

human M4 receptor = molecular target: T6, human M4 receptor (Homo sapiens, UniProt P08173); experiment: R-SAT assay M4; type: cell-based; details: Table 3, M4; percent response of reference Carbachol
T6 construct: expressed in transfected cells; host or cells: NIH/3T3
T6 sequence (P08173 1-479): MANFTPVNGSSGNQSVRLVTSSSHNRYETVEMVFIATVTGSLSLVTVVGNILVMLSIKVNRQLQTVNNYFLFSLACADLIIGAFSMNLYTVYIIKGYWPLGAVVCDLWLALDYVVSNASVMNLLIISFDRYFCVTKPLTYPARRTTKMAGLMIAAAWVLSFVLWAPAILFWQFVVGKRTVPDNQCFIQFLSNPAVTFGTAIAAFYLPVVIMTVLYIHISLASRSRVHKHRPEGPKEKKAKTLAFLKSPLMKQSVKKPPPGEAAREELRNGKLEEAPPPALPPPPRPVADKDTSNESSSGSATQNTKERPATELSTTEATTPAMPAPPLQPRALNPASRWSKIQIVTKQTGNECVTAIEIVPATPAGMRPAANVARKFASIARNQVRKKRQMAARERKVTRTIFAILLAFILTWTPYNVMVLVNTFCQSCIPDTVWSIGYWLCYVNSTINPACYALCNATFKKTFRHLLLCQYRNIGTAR

human M5 receptor = molecular target: T7, human M5 receptor (Homo sapiens, UniProt P08912); experiment: R-SAT assay M5; type: cell-based; details: Table 3, M5; percent response of reference Carbachol
T7 construct: expressed in transfected cells; host or cells: NIH/3T3 cells, transient transfection, pSI vector
T7 sequence (P08912 whole entry): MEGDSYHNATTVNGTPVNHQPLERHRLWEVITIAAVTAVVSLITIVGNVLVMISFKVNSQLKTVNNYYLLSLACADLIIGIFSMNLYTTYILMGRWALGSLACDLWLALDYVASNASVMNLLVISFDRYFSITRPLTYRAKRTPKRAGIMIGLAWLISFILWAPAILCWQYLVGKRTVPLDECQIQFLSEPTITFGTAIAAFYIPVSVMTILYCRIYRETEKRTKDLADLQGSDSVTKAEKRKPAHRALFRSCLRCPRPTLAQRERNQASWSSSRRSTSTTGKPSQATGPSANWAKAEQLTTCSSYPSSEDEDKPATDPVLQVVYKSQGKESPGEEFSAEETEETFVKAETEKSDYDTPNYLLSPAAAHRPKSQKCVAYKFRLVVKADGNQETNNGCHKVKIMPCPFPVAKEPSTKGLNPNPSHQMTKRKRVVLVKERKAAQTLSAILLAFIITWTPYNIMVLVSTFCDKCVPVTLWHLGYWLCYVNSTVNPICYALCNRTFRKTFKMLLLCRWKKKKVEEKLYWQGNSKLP

human D3 receptor = molecular target: T8, human D3 receptor (Homo sapiens, UniProt P35462); experiment: R-SAT assay D3; type: cell-based; details: Table 3, D3; percent response of reference Pergolide
T8 construct: expressed in transfected cells
T8 sequence (P35462 whole entry): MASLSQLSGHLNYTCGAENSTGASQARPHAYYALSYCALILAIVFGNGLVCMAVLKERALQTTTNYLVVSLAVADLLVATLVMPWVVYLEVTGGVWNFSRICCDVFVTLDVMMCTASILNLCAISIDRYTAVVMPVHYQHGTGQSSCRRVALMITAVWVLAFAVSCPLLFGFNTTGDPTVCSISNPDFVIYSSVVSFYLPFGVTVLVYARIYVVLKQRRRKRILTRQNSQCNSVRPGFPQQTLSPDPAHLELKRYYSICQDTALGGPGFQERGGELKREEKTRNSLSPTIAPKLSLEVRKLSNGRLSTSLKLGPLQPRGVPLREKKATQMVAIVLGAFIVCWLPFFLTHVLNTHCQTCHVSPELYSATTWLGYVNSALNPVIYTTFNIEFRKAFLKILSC

[5] = molecular target: human D4 (variant 4.2) receptor (Homo sapiens, UniProt P21917, DEL265-296); type: cell-based
human D4 (variant 4.2) receptor, sequence (P21917 with tags, fused parts or gaps DEL265-296): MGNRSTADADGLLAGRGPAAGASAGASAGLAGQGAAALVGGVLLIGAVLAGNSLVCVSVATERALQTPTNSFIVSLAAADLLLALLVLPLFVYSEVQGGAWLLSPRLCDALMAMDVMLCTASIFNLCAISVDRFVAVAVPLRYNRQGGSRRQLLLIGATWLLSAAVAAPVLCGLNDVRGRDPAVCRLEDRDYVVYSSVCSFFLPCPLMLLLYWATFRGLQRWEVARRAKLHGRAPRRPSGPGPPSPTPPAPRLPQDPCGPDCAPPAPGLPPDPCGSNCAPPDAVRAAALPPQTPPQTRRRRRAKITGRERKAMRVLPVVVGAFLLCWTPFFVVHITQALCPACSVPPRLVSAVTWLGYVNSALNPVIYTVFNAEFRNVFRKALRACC

D2 receptors [6] = molecular target: T9, D2 receptors (Homo sapiens, UniProt P14416); experiment: GTPγS binding assay at D2; type: biochemical; set-up: expressed in transfected cells; details: percent response of reference ligand dopamine; mean ± SEM
T9 sequence (P14416 1-414 isoform P14416-2): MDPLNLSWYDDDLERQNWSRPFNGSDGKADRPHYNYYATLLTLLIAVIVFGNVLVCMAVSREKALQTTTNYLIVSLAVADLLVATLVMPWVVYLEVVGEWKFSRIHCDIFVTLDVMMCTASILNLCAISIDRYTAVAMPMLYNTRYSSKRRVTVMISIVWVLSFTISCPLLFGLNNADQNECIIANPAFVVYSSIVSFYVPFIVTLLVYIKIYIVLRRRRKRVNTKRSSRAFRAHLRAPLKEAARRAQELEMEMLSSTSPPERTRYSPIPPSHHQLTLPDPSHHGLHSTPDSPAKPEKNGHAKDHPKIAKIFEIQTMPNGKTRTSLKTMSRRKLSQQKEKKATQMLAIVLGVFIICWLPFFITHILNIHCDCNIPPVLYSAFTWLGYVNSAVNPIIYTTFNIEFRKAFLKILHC
Procedure: Cells were not centrifuged following cell scraping, but were collected directly into the ice-cold nitrogen cavitation chamber.
50 μl/well Wheat-Germ Agglutinin SPA beads (Perkin Elmer, Shelton, Conn.) were added to the plates and the plates incubated for 1 hour. The plates were then centrifuged at 1,000×g for 10 minutes and read on a Top Count NXT (Perkin Elmer, Shelton, Conn.).
To relate the results observed in R-SAT™ to a more conventional assay system, these ligands were also tested for the ability to induce GTPγS binding through D2 receptors.

D2 receptors [7] = molecular target: T9, D2 receptors; experiment: R-SAT functional assay at D2; type: cell-based; set-up: expressed in transfected cells; host or cells: NIH-3T3
D2 receptors [8] = molecular target: T9, D2 receptors; experiment: BRET2 beta-arrestin-2 recruitment assay at D2; type: cell-based; set-up: expressed in transfected cells; host or cells: HEK-293T
Procedure: as §1
Each curve is representative of two to three independent experiments.

human alpha1A receptor = molecular target: T10, human alpha1A receptor (Homo sapiens, UniProt P35348); experiment: R-SAT assay α1A; type: cell-based; details: Table 3, α1A; percent response of reference Phenylephrine
T10 construct: expressed in transfected cells; host or cells: NIH/3T3 cells, transient transfection, pSI vector
T10 sequence (P35348 1-466): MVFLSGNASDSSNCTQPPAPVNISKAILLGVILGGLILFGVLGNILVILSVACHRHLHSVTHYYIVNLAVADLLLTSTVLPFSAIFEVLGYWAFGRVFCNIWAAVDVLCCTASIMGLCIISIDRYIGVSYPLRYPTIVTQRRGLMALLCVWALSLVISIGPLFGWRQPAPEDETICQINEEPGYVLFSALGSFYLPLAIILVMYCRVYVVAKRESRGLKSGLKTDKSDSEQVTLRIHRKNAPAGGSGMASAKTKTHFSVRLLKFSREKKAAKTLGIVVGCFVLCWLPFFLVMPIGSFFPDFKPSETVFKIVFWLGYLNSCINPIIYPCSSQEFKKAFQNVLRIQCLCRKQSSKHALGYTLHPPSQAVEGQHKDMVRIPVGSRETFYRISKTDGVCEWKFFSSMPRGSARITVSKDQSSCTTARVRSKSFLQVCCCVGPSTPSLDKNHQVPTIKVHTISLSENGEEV

human alpha1B receptor = molecular target: T11, human alpha1B receptor (Homo sapiens, UniProt P35368); experiment: R-SAT assay α1B; type: cell-based; details: Table 3, α1B; percent response of reference Phenylephrine
T11 construct: expressed in transfected cells; host or cells: NIH/3T3 cells, transient transfection, pSI vector
T11 sequence (P35368 1-520): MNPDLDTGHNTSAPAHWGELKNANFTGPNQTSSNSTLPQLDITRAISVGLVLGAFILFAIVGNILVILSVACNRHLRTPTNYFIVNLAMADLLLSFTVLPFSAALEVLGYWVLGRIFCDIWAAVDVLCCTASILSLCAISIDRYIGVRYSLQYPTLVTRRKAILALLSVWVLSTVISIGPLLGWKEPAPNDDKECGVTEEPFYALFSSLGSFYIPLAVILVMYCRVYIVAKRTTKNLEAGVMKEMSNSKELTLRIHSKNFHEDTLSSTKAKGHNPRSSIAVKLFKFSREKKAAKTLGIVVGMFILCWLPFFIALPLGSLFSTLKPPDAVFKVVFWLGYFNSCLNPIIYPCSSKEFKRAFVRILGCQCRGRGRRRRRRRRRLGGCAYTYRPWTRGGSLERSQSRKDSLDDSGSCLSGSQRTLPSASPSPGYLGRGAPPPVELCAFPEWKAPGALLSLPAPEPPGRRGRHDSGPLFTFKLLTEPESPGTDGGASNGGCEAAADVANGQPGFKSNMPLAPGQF

human D1 receptor = molecular target: T12, human D1 receptor (Homo sapiens, UniProt P21728); experiment: R-SAT assay D1; type: cell-based; details: Table 3, D1; percent response of reference SKF 38393
T12 construct: expressed in transfected cells; host or cells: NIH-3T3 (inferred: R-SAT host; D1 is in neither method list of b200)
T12 sequence (P21728 whole entry): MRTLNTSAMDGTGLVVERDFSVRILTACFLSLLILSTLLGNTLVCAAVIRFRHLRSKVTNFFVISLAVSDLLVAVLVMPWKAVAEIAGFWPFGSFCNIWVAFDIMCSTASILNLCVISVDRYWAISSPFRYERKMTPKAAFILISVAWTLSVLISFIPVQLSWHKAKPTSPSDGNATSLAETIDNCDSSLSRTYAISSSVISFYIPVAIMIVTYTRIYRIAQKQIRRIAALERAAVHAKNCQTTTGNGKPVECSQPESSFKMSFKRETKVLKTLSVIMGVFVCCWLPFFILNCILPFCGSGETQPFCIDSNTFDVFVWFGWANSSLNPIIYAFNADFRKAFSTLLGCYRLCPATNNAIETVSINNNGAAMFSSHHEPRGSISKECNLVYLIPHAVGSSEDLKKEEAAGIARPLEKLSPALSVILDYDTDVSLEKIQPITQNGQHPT

human alpha2C receptor = molecular target: T13, human alpha2C receptor (Homo sapiens, UniProt P18825); experiment: R-SAT assay α2C; type: cell-based; details: Table 3, α2C; percent response of reference UK 14,306
T13 construct: expressed in transfected cells; host or cells: NIH/3T3 cells, transient transfection, pSI vector
T13 sequence (P18825 1-462): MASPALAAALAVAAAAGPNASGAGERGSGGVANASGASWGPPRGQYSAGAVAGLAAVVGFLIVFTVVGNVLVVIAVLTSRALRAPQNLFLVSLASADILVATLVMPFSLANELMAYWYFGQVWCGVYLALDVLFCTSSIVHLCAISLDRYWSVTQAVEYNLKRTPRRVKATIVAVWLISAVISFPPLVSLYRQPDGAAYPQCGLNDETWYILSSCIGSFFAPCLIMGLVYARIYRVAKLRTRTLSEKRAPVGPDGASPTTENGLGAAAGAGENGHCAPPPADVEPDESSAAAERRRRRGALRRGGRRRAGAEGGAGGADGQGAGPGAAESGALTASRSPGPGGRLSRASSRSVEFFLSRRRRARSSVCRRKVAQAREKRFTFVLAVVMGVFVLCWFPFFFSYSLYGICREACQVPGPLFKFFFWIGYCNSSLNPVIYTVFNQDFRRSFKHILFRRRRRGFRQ

[9] = percent response of reference ligand 5-HT

human 5-HT1B receptor, sequence (P28222 whole entry): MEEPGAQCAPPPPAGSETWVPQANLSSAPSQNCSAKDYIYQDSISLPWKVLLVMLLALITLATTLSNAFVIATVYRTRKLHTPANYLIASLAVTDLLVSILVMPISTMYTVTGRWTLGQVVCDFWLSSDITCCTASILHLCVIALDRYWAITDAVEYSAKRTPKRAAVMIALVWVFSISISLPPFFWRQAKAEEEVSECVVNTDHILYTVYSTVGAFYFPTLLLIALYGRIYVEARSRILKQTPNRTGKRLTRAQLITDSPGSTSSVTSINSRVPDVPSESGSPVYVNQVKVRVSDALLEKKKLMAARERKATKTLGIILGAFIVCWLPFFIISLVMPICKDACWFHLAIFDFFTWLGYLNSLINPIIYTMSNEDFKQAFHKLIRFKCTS
T1 sequence (P28221 whole entry): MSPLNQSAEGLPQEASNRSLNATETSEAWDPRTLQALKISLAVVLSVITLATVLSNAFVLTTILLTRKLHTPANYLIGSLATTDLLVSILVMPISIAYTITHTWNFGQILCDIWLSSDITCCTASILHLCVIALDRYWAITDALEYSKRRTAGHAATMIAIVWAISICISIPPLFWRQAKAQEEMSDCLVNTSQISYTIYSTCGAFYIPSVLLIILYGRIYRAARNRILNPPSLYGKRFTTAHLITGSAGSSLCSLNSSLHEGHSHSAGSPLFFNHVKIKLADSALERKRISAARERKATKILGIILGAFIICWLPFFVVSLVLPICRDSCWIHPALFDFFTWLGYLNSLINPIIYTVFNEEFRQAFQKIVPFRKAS

NCCc1c[nH]c2ccc(C(N)=O)cc12 [5-CT, 5-carboxamidotryptamine, reference compound]
EC50 (human 5-HT1B receptor): 0.00631 µM | Eff (%) (human 5-HT1B receptor; Table 3, 5-HT1B, percent response of reference 5-CT): 100% | Eff (%) (human 5-HT1D receptor): 100% | Eff (%) [1]: 100% | EC50 (human 5-HT6 receptor): 0.251 µM | Eff (%) (human 5-HT6 receptor; Table 3, 5-HT6, percent response of reference 5-CT): 100% | Eff (%) (human 5-HT7 receptor): 100% | EC50 (human 5-HT2A receptors [2]; negative logarithm of EC50 in molar (M), HEK 293T cells, read-out: PI Hydrolysis pEC50 (converted)): 2.51e-07 M | PI Hydrolysis Eff (%) (human 5-HT2A receptors [2]; [9]): 92 ± 4% | EC50 (human 5-HT2A receptors [3]; Table 1, negative logarithm of EC50 in molar (M), NIH3T3 cells, mean ± SEM, read-out: R-SAT pEC50 (converted)): 6.31e-08 M | R-SAT Eff(%) (human 5-HT2A receptors [3]; Table 1, percent response of reference ligand 5-CT, mean ± SEM): 100 ± 0% | EC50 (human 5-HT2A receptors [3]; Table 3, 5-HT2A, negative logarithm of EC50 in molar, read-out: pEC50 (converted)): 7.94e-08 M | Eff (%) (human 5-HT2A receptors [3]; Table 3, 5-HT2A, percent response of reference 5-CT): 100% | EC50 (5-HT2B receptors): 0.0501 µM | Eff (%) (5-HT2B receptors; Table 3, 5-HT2B, percent response of reference 5-CT): 100% | EC50 (human 5-HT2A receptors [4]; negative logarithm of EC50 in molar (M), HEK 293T cells, read-out: BRET2 pEC50 (converted)): 2e-07 M | BRET2 Eff % (human 5-HT2A receptors [4]; [9]): 98 ± 3%

C[N+](C)(C)CCOC(N)=O [Carbachol, reference compound]
Eff (%) (human M2 receptor): 100% | Eff (%) (human M4 receptor): 100% | Eff (%) (human M5 receptor): 100%

CCCN1C[C@H](CSC)C[C@@H]2c3cccc4[nH]cc(c34)C[C@H]21 [Pergolide]
Eff (%) (human D3 receptor): 100% | Eff (%) [5]: 100% | GTPγS Eff % (D2 receptors [6]): 94 ± 7% | R-SAT Eff(%) (D2 receptors [7]; Table 2, percent response of reference ligand pergolide, mean ± SEM): 100 ± 0% | Eff (%) (D2 receptors [7]; Table 3, D2, percent response of reference Pergolide): 100% | agonist profile in BRET2 assays at D2 receptors (D2 receptors [8]): partial agonists | BRET2 Eff % (D2 receptors [8]; percent response of reference ligand dopamine, mean ± SEM): 64 ± 3%

CNC[C@H](O)c1cccc(O)c1 [Phenylephrine, reference compound]
Eff (%) (human alpha1A receptor): 100% | Eff (%) (human alpha1B receptor): 100%

Oc1cc2c(cc1O)C(c1ccccc1)CNCC2 (stereo not shown) [SKF 38393, reference compound]
Eff (%) (human D1 receptor): 100%

Brc1c(NC2=NCCN2)ccc2nccnc12 [UK 14,306, reference compound]
Eff (%) (human alpha2C receptor): 100%

Source: patent US20130197032A1, “[…] COMPOUNDS FOR THE TREATMENT OF NEUROLOGICAL AND […] DISORDERS” (A. CARLSSON RESEARCH AB, priority 2010, published 2013)
